SMILES strings stand for the structures. Counter-ions that a name gives are not always drawn. A value given as a limit tells only on which side of the number the result lay.

The target of the test is Human immunodeficiency virus type 1 integrase (Human immunodeficiency virus 1, UniProt Q7ZJM1). As to the kind of experiment: Inhibition of HIV1 recombinant integrase.
Human immunodeficiency virus type 1 integrase, sequence (Q7ZJM1 whole entry): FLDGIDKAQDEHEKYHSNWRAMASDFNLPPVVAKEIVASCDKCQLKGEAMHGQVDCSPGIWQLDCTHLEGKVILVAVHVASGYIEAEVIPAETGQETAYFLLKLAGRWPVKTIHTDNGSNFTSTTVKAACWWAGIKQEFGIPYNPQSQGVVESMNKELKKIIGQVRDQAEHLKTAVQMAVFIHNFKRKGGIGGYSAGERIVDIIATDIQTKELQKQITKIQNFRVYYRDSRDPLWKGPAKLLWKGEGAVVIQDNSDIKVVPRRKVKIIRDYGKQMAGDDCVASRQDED
Turning to `O=S(=O)(O)OCCC#CC#CCCCCC#CC#C/C=C/Br`, the IC50 was 78.3 µM.

In the case of `O=S(=O)(O)OCC(O)C#CC#CCCCCCCC#C/C=C/Br` (stereo not drawn), the IC50 was 74.4 µM.

Take `OCC(O)C#CC#CCCCCCCC#C/C=C/Br` (stereo not drawn) [DIPLYNE A]: the IC50 is more than 155 µM.

Turning to `OCC(O)C#CC#CCCCCCCC#C/C=C\Br` (stereo not drawn) [DIPLYNE B], the half-maximal inhibitory concentration (IC50) is more than 155 µM.

On to `O=S(=O)(O)OCC(O)C#CC#CCCCCCCCC/C=C/Br` (stereo not drawn) [DIPLYNE C SULFATE], for which the IC50 is 73.7 µM.

In the case of `OCC(O)C#CC#CCCCCCCCC/C=C/Br` (stereo not drawn) [DIPLYNE C], the concentration for half-maximal inhibition (IC50) was more than 153 µM.

In the case of `OCC(O)C#CC#CCCCCC#CC#C/C=C/Br` (stereo not drawn) [DIPLYNE D], the IC50 is more than 157 µM.

Turning to `OCC(O)C#CC#CCCCC/C=C/C#C/C=C/Br` (stereo not drawn) [DIPLYNE E], the IC50 was more than 156 µM.

By IC50 is commonly meant the concentration that gives 50% inhibition.

Source of the values: ChEMBL document CHEMBL1150044, “Brominated polyacetylenes from the Philippines sponge Diplastrella sp” (J Nat Prod, 2003).
